We go through 1 substance from paper PMC4899770, “Core-shell nanocarriers with high paclitaxel loading for passive and active targeting” (Scientific Reports, 2016).

The conditions of the data set: rat, in vivo, iv, 10 mg/kg.

Broadly, the MRT is the average time that molecules of a dose stay in the body.

Method: Blood samples (0.5 mL) were collected from rat orbit at the time points of 0.083, 0.25, 0.5, 1, 2, 4, 6 and 8 h. The blood samples were centrifuged for 10 min at 5,000 rpm in a desktop centrifuge (Anke TGL-16G, Shanghai, China), and the plasma was separated and transferred to microcentrifuge tubes. The PTX in plasma was measured using an HPLC system after extraction with ethylether and redissolved in methanol. The pharmacokinetic parameters of PTX were calculated using a non-compartmental model with Kinetica 5.0 (Thermo Fisher Scientific Inc., MA, USA).
Two hundred microliter of plasma samples were mixed with 10 µL of internal standard (100 ng/mL diazepam in methanol), followed by vortexing for 60 s. Following mixing into 800 µL of ethylether, the sample was vortexed for 2 min and centrifuged at 12,700 g for 10 min. Subsequently, the supernatant was collected and dried under a stream of nitrogen. The residual was redisolved in 100 µL of mobile phase, votexed for 3 min and centrifuged at 10,625 g for 5 min^7. Finally, 20 µL of the supernatant was injected into the HPLC system for analysis under the conditions described below.
PTX measurement was performed on a LC-10AT HPLC system (Shimadzu, Japan). It was separated at 30 °C using an ODS-C18 column (4.6 mm × 250 mm, Diamonsil, China). The samples were eluted with acetonitrile and water (54: 46, v/v) at the flow rate of 1.0 mL/min and monitored at 227 nm^8.

For the substance Taxol^®, the “AUC0-∞” value came to 4380 ± 3570 ng·h/mL, the CL was 1.68 ± 1.19 L/h, the MRT is 1.78 ± 0.88 h and the “k (elimination rate constant)” value worked out at 2.99 ± 2.88 h⁻¹.
